Test results taken from patent US11208399B2, “NLRP3 inflammasome inhibitors” (Novartis AG, priority 2019, dated 2021).

Key:
[1] = tested on: NF-kB-dependent TNF-α secretion; experiment: TNF-α secretion assay in THP-1 cells (counter screen, HTRF); type: cell-based; conditions: Homo sapiens, Pam3CSK4-stimulated, 3 hours
Method: Monocytic THP-1 cells were maintained according to providers' instructions in RPMI media as described above. […] Experimental compounds were prepared and added as described above. TNF-α secretion was triggered by the addition of either 1 μg/mL LPS (Sigma, #L4391) or 100 ng/mL Pam3CSK4 (Invivogen, #tlrl-pms) depending on the experiment, and cells were incubated for 3 hours. 10 μL supernatant was removed, and TNF-α levels were monitored using an HTRF assay (CisBio, #62TNFPEC) according to manufacturers' instructions. Viability was monitored as described above.
IC50 values were calculated from the plot of percentage of inhibition versus the inhibitor concentration by a logistics fit according to: y=A2+(A1−A2)/(1+(x/IC50)^p) where y is the %-inhibition at the inhibitor concentration, x. A1 is the lowest inhibition value, i.e. 0%, and A2 the maximum inhibition value, i.e. 100%. The exponent, p, is the Hill coefficient. The curve fitting was conducted with an internally developed software suite. […]

NLRP3 inflammasome = experiment: IL-1β secretion assay in PMA-differentiated THP-1 cells, nigericin-activated (HTRF); type: cell-based; conditions: Homo sapiens, 15 μM nigericin, 3 hours, read-out: IL-1β IC50
Method: 10 μL supernatant was removed, and IL-1p levels were monitored using an HTRF assay (CisBio, #621L1PEC) according to manufacturers' instructions. Viability and pyroptosis was monitored with the addition of PrestoBlue cell viability reagent (Life Technologies, #A13261) directly to the cell culture plate.
IC50 values were calculated from the plot of percentage of inhibition versus the inhibitor concentration by a logistics fit according to: y=A2+(A1−A2)/(1+(x/IC50)^p) where y is the %-inhibition at the inhibitor concentration, x. A1 is the lowest inhibition value, i.e. 0%, and A2 the maximum inhibition value, i.e. 100%. The exponent, p, is the Hill coefficient. The curve fitting was conducted with an internally developed software suite.
NLRP3-dependent IL-1β secretion was stimulated in PMA-differentiated THP-1 cells by the addition of nigericin, and cytokines were measured in the […] after 3 hours. As discussed above, activation of the NLRP3 inflammasome requires both an NF-kB-dependent priming step and the addition of a NLRP3 activator.

For `Cc1cc(C(F)(F)F)cc(O)c1-c1ccc(NCC2COCCN2C)nn1` (racemic) [Ex 77, (rac)-3-Methyl-2-(6-(((4-methylmorpholin-3-yl)methyl)amino)pyridazin-3-yl)-5-(trifluoromethyl)phenol], the IC50 [1] was over 100000 nM and the IC50 (NLRP3 inflammasome) was 61.9 nM.

For `Cc1cc(C(F)(F)F)cc(O)c1-c1ccc(N[C@@H]2CCC[C@H]2O)nn1` (relative stereo) [Ex 24, (trans)-2-(6-((2-Hydroxycyclopentyl)amino)pyridazin-3-yl)-3-methyl-5-(trifluoromethyl)phenol], the IC50 [1] was 37000 nM and the IC50 (NLRP3 inflammasome) was 120 nM.

With `Cc1cc(C(F)(F)F)cc(O)c1-c1ccc(N[C@H]2C[C@@](C)(O)C2)nn1` [Ex 2, 2-(6-(((cis)-3-Hydroxy-3-methylcyclobutyl)amino)pyridazin-3-yl)-3-methyl-5-(trifluoromethyl)phenol] the IC50 [1] was over 100000 nM and the IC50 (NLRP3 inflammasome) was 10.2 nM.

`Cc1cc(C(F)(F)F)cc(O)c1-c1ccc(N[C@@H]2CCC[C@H](O)C2)nn1` [Ex 3, 2-(6-(((1R,3S)-3-Hydroxycyclohexyl)amino)pyridazin-3-yl)-3-methyl-5-(trifluoromethyl)phenol] showed an IC50 [1] of over 100000 nM and an IC50 (NLRP3 inflammasome) of 25.5 nM.

With `CCN1CCC[C@H]1CNc1ccc(-c2c(C)cc(C(F)(F)F)cc2O)nn1` [Ex 8, (S)-2-(6-(((1-Ethylpyrrolidin-2-yl)methyl)amino)pyridazin-3-yl)-3-methyl-5-(trifluoromethyl)phenol] the IC50 [1] was over 100000 nM and the IC50 (NLRP3 inflammasome) was 24.1 nM.

`Cc1cc(C(F)(F)F)cc(O)c1-c1ccc(NCC(O)(C(F)(F)F)C(F)(F)F)nn1` [Ex 10, 3-Methyl-2-(6-((3,3,3-trifluoro-2-hydroxy-2-(trifluoromethyl)propyl)amino)pyridazin-3-yl)-5-(trifluoromethyl)phenol] gave an IC50 [1] of over 33000 nM and an IC50 (NLRP3 inflammasome) of 349 nM.

With `Cc1cc(C(F)(F)F)cc(O)c1-c1ccc(NC[C@H]2CCCN2)nn1` [Ex 14, (R)-3-Methyl-2-(6-((pyrrolidin-2-ylmethyl)amino)pyridazin-3-yl)-5-(trifluoromethyl)phenol] the IC50 [1] was over 100000 nM and the IC50 (NLRP3 inflammasome) was 85.7 nM.

`Cc1cc(C(F)(F)F)cc(O)c1-c1ccc(NCC(C)(C)O)nn1` [Ex 15, 2-(6-((2-Hydroxy-2-methylpropyl)amino)pyridazin-3-yl)-3-methyl-5-(trifluoromethyl)phenol] was tested, and the IC50 [1] was over 100000 nM and the IC50 (NLRP3 inflammasome) was 85.9 nM.

`Cc1cc(C(F)(F)F)cc(O)c1-c1ccc(NCC(C)(C)N(C)C)nn1` [Ex 16, 2-(6-((2-(Dimethylamino)-2-methylpropyl)amino)pyridazin-3-yl)-3-methyl-5-(trifluoromethyl)phenol] showed an IC50 [1] of over 100000 nM and an IC50 (NLRP3 inflammasome) of 36.3 nM.

In the case of `Cc1cc(C(F)(F)F)cc(O)c1-c1ccc(OCC(C)(C)O)nn1` [Ex 19, 2-(6-(2-Hydroxy-2-methylpropoxy)pyridazin-3-yl)-3-methyl-5-(trifluoromethyl)phenol], the IC50 [1] is reported as over 100000 nM and the IC50 (NLRP3 inflammasome) is reported as 93.6 nM.

`Cc1cc(C(F)(F)F)cc(O)c1-c1ccc(NC[C@H]2CCCCN2)nn1` [Ex 20, (R)-3-Methyl-2-(6-((piperidin-2-ylmethyl)amino)pyridazin-3-yl)-5-(trifluoromethyl)phenol] gave an IC50 [1] of over 100000 nM and an IC50 (NLRP3 inflammasome) of 82.3 nM.

In the case of `Cc1cc(C(F)(F)F)cc(O)c1-c1ccc(NC[C@@H]2CCCCN2)nn1` [Ex 21, (S)-3-Methyl-2-(6-((piperidin-2-ylmethyl)amino)pyridazin-3-yl)-5-(trifluoromethyl)phenol], the IC50 [1] is reported as over 100000 nM and the IC50 (NLRP3 inflammasome) is reported as 48.4 nM.

In the case of `Cc1cc(C(F)(F)F)cc(O)c1-c1ccc(NC[C@@H]2CC(F)(F)CN2)nn1` [Ex 22, (S)-2-(6-(((4,4-Difluoropyrrolidin-2-yl)methyl)amino)pyridazin-3-yl)-3-methyl-5-(trifluoromethyl)phenol], the IC50 [1] is reported as over 100000 nM and the IC50 (NLRP3 inflammasome) is reported as 80.7 nM.

For `Cc1cc(C(F)(F)F)cc(O)c1-c1ccc(NC[C@H]2CC(F)(F)CN2)nn1` [Ex 23, (R)-2-(6-(((4,4-Difluoropyrrolidin-2-yl)methyl)amino)pyridazin-3-yl)-3-methyl-5-(trifluoromethyl)phenol], the IC50 [1] was over 100000 nM and the IC50 (NLRP3 inflammasome) was 93.4 nM.

For `Cc1cc(C(F)(F)F)cc(O)c1-c1cc(C(F)(F)F)c(NCCO)nn1` [Ex 26, 2-(6-((2-Hydroxyethyl)amino)-5-(trifluoromethyl)pyridazin-3-yl)-3-methyl-5-(trifluoromethyl)phenol], the IC50 [1] was over 100000 nM and the IC50 (NLRP3 inflammasome) was 165 nM.

`Cc1cc(C(F)(F)F)cc(O)c1-c1ccc(NCc2ccccn2)nn1` [Ex 28, 3-Methyl-2-(6-((pyridin-2-ylmethyl)amino)pyridazin-3-yl)-5-(trifluoromethyl)phenol] showed an IC50 [1] of over 100000 nM and an IC50 (NLRP3 inflammasome) of 288 nM.

Compound `Cc1cc(C(F)(F)F)cc(O)c1-c1ccc(NCC(C)(C)N)nn1` [Ex 29, 2-(6-((2-Amino-2-methylpropyl)amino)pyridazin-3-yl)-3-methyl-5-(trifluoromethyl)phenol] has an IC50 [1] of over 100000 nM and an IC50 (NLRP3 inflammasome) of 169 nM.

Work on `CC(C)(O)CNc1ccc(-c2c(O)cc(C(F)(F)F)cc2Cl)nn1` [Ex 30, 3-Chloro-2-(6-((2-hydroxy-2-methylpropyl)amino)pyridazin-3-yl)-5-(trifluoromethyl)phenol] yielded an IC50 [1] of over 100000 nM and an IC50 (NLRP3 inflammasome) of 214 nM.

Work on `Oc1cc(C(F)(F)F)cc(Cl)c1-c1ccc(N[C@H]2C[C@@H](O)C2)nn1` [Ex 31, 3-Chloro-2-(6-((cis-3-hydroxycyclobutyl)amino)pyridazin-3-yl)-5-(trifluoromethyl)phenol] yielded an IC50 [1] of over 100000 nM and an IC50 (NLRP3 inflammasome) of 167 nM.

Work on `Oc1cc(C(F)(F)F)cc(Cl)c1-c1ccc(N[C@H]2C[C@H](O)C2)nn1` [Ex 32, 3-Chloro-2-(6-((trans-3-hydroxycyclobutyl)amino)pyridazin-3-yl)-5-(trifluoromethyl)phenol] yielded an IC50 [1] of 85000 nM and an IC50 (NLRP3 inflammasome) of 218 nM.

In the case of `Cc1cc(C(F)(F)F)cc(O)c1-c1ccc(N[C@@H]2CCCN[C@@H]2C)nn1` [Ex 91b, 3-Methyl-2-(6-(((2R,3R)-2-methylpiperidin-3-yl)amino)pyridazin-3-yl)-5-(trifluoromethyl) phenol], the IC50 [1] is reported as over 100000 nM.

For `Cc1cc(C(F)(F)F)cc(O)c1-c1ccc(N[C@@H]2CCCN(C[C@H](C)O)C2)nn1` [Ex 92a, 2-(6-(((R)-1-((S)-2-Hydroxypropyl)piperidin-3-yl)amino)pyridazin-3-yl)-3-methyl-5-(trifluoromethyl)phenol], the IC50 [1] was over 100000 nM.

Work on `Cc1cc(C(F)(F)F)cc(O)c1-c1ccc(N[C@@H]2C[C@H](O)CN(C)C2)nn1` [Ex 97, (3S,5R)-5-((6-(2-Hydroxy-6-methyl-4-(trifluoromethyl)phenyl)pyridazin-3-yl)amino)-1-methylpiperidin-3-ol] yielded an IC50 [1] of over 100000 nM.

`Cc1cc(-c2c(C)cc(C(F)(F)F)cc2O)nnc1N[C@@H]1CCCNC1` [Ex 100, (R)-3-Methyl-2-(5-methyl-6-(piperidin-3-ylamino)pyridazin-3-yl)-5-(trifluoromethyl)phenol] was tested, and the IC50 [1] was over 100000 nM.

In the case of `CCN1CCC[C@@H](Nc2nnc(-c3c(C)cc(C(F)(F)F)cc3O)cc2C)C1` [Ex 101, (R)-2-(6-((1-Ethylpiperidin-3-yl)amino)-5-methylpyridazin-3-yl)-3-methyl-5-(trifluoromethyl)-phenol], the IC50 [1] is reported as over 100000 nM.

`Cc1cc(-c2c(C)cc(C(F)(F)F)cc2O)nnc1N[C@@H]1CCCN(C)C1=O` [Ex 102, (R)-3-((6-(2-Hydroxy-6-methyl-4-(trifluoromethyl)phenyl)-4-methylpyridazin-3-yl)amino)-1-methylpiperidin-2-one] was tested, and the IC50 (NLRP3 inflammasome) was 49 nM.
